Experimental data: the NIST ThermoML archive (doi:10.1021/je030177j)

Experiment: mn = molality of the nth substance listed, in mol/kg
Details: Liquid, Capillary tube (Ostwald / Ubbelohde) method

O=S(=O)([O-])[O-].[Li+].[Li+] [lithium sulfate] + O
viscosity [mPa·s]
Details | 10000 kPa | 20000 kPa | 30000 kPa
415.76 K, m1 = 0.885 | – | – | 0.2944
417.42 K, m1 = 0.28 | 0.2175 | 0.2199 | 0.2227
418.18 K, m1 = 0.56 | 0.2443 | 0.2469 | 0.2497
420.67 K, m1 = 0.1 | 0.198 | 0.201 | 0.2031
423.55 K, m1 = 0.28 | 0.208 | 0.2106 | 0.2133
424.05 K, m1 = 0.885 | 0.2687 | 0.2721 | 0.2756
424.55 K, m1 = 0.56 | 0.233 | 0.2359 | 0.239
430.26 K, m1 = 0.885 | 0.2564 | 0.2601 | 0.264
430.73 K, m1 = 0.28 | 0.1975 | 0.1999 | 0.2024
431.72 K, m1 = 0.1 | 0.1829 | 0.1849 | 0.1871
431.83 K, m1 = 0.56 | 0.2212 | 0.2231 | 0.2251
437.24 K, m1 = 0.56 | 0.213 | 0.2154 | 0.2185
439.37 K, m1 = 0.885 | 0.2402 | 0.244 | 0.2479
440.04 K, m1 = 0.28 | 0.1858 | 0.1885 | 0.191
446.35 K, m1 = 0.56 | 0.2 | 0.203 | 0.206
449.15 K, m1 = 0.885 | 0.2248 | 0.2283 | 0.2318
449.35 K, m1 = 0.28 | 0.175 | 0.1776 | 0.1803
449.55 K, m1 = 0.1 | 0.163 | 0.1654 | 0.168
452.17 K, m1 = 0.56 | 0.1927 | 0.1957 | 0.1984
458.12 K, m1 = 0.885 | 0.2109 | 0.2139 | 0.2179
458.17 K, m1 = 0.28 | 0.1658 | 0.1682 | 0.1704
459.12 K, m1 = 0.56 | 0.1843 | 0.1878 | 0.19
459.89 K, m1 = 0.1 | 0.1532 | 0.1553 | 0.1577
462.13 K, m1 = 0.28 | 0.162 | 0.1649 | 0.1674
466.79 K, m1 = 0.885 | 0.2003 | 0.2038 | 0.2071
468.13 K, m1 = 0.56 | 0.175 | 0.1787 | 0.1813
468.74 K, m1 = 0.28 | 0.1558 | 0.1582 | 0.1612
468.97 K, m1 = 0.1 | 0.1454 | 0.1477 | 0.15
473.25 K, m1 = 0.1 | 0.1421 | 0.1467 | 0.149
475.55 K, m1 = 0.28 | 0.15 | 0.1528 | 0.1555
476.95 K, m1 = 0.885 | 0.1885 | 0.192 | 0.1956
479.55 K, m1 = 0.56 | 0.1637 | 0.1668 | 0.1699
482.35 K, m1 = 0.1 | 0.1352 | 0.1378 | 0.1404
485.13 K, m1 = 0.885 | 0.1797 | 0.1835 | 0.1871
485.17 K, m1 = 0.28 | 0.1424 | 0.1452 | 0.1475
490.35 K, m1 = 0.1 | 0.1297 | 0.1322 | 0.1354
490.76 K, m1 = 0.56 | 0.1538 | 0.1567 | 0.1595
492.49 K, m1 = 0.885 | 0.1725 | 0.1761 | 0.179
495.14 K, m1 = 0.28 | 0.1352 | 0.1377 | 0.14
500.43 K, m1 = 0.885 | 0.1653 | 0.1688 | 0.1722
501.3 K, m1 = 0.1 | 0.1228 | 0.125 | 0.1275
509.17 K, m1 = 0.885 | 0.158 | 0.1614 | 0.1649
510.12 K, m1 = 0.56 | 0.1391 | 0.142 | 0.1455
510.93 K, m1 = 0.1 | 0.1172 | 0.1199 | 0.1235
515.27 K, m1 = 0.28 | 0.1224 | 0.1247 | 0.1271
517.75 K, m1 = 0.885 | 0.1513 | 0.155 | 0.1586
521.75 K, m1 = 0.1 | 0.1115 | 0.1143 | 0.117
522.75 K, m1 = 0.56 | 0.1308 | 0.1341 | 0.1373
525.95 K, m1 = 0.28 | 0.1166 | 0.1196 | 0.1225
526.12 K, m1 = 0.885 | 0.1453 | 0.1491 | 0.1527
530.53 K, m1 = 0.1 | 0.1072 | 0.1097 | 0.1122
532.85 K, m1 = 0.56 | 0.125 | 0.1281 | 0.131
538.24 K, m1 = 0.885 | 0.1372 | 0.1408 | 0.1443
540.08 K, m1 = 0.28 | 0.1096 | 0.1125 | 0.1156
541.04 K, m1 = 0.1 | 0.1024 | 0.1052 | 0.1087
547.35 K, m1 = 0.1 | 0.0998 | 0.1027 | 0.1055
550.72 K, m1 = 0.885 | 0.1297 | 0.1335 | 0.1372
551.24 K, m1 = 0.56 | 0.1151 | 0.1184 | 0.1214
560.12 K, m1 = 0.28 | 0.1011 | 0.104 | 0.1075
560.18 K, m1 = 0.885 | 0.1246 | 0.1282 | 0.1318
560.43 K, m1 = 0.1 | 0.0948 | 0.0977 | 0.0999
560.72 K, m1 = 0.56 | 0.1106 | 0.1132 | 0.115
569.15 K, m1 = 0.1 | 0.0917 | 0.0945 | 0.0977
572.05 K, m1 = 0.56 | 0.1056 | 0.1092 | 0.1126
573.45 K, m1 = 0.28 | 0.0962 | 0.0995 | 0.1025
574.55 K, m1 = 0.885 | 0.1176 | 0.1217 | 0.1255
574.75 K, m1 = 0.1 | 0.0897 | 0.0928 | 0.0957
